Data as given in US10130101B2 (priority 2015, dated 2018).

Assays:
[1] = system: pyrethroid resistant bed bugs, Cimex lectularius (ECL-05 strain); format: in vivo; settings: day 7; 0.05% imidacloprid formulation, not diluted; direct spray 0.50 g per replication
Protocol: Treatments 1 to 4 were diluted in acetone to 5.5% w/w. Treatment 5 was not diluted.
The ECL-05 strain of bugs was used in the study. This strain represents an aggregate colony of pyrethroid resistant strains of bed bugs from Minnesota, Wisconsin, Florida and New Jersey.
Adult male bed bugs, 5 to 6 weeks old, were sorted from the colonies at the University of Minnesota using a pair of soft tissue forceps (Fisher Scientific, Pittsburgh, Pa., USA). Bed bugs were transferred to Applicant and maintained in a glass jar with a mesh screen top, as described above, in an environmental chamber (Darwin Chamber Company, Saint Louis, Mo., USA) at 27° C. and 65% relative humidity until testing.
For testing, 10 adult males were transferred into specific bed bug spray containers using soft tissue forceps. Bed bug spray containers were constructed by placing a 150 mm Whatman filter paper (Fisher Scientific, Pittsburgh, Pa., USA) onto the top of a stainless steel, round ring (10 cm in diameter and 3.25 cm in height). A second stainless steel ring of similar dimensions was then stacked on top of the base ring creating a double-ring structure with a filter paper surface in between. The sides of the double ring structure were secured with laboratory labeling tape (Fisher Scientific, Pittsburgh, Pa., USA). […]

[2] = system: pyrethroid resistant bed bugs; test: whole plant or invertebrate; format: in vivo; settings: Cimex lectularius, 168 h; 7 days; imidacloprid at 0.05% w/w
Description: For testing, 10 adult males were transferred into specific bed bug spray containers using soft tissue forceps. Bed bug spray containers were constructed by placing a 150 mm Whatman filter paper (Fisher Scientific, Pittsburgh, Pa., USA) onto the top of a stainless steel, round ring (10 cm in diameter and 3.25 cm in height). A second stainless steel ring of similar dimensions was then stacked on top of the base ring creating a double-ring structure with a filter paper surface in between. The sides of the double ring structure were secured with laboratory labeling tape (Fisher Scientific, Pittsburgh, Pa., USA). In the resulting setup, the filter paper provides a non-abrasive surface for bed bugs to rest on while it also serves to absorb any overspray in the container. Following the transfer of bed bugs from the colony jar, bed bugs were allowed to recover for 1 hour in the spray container before treatment application commenced.
Treatments were administered using a DeVilbiss 151 atomizer (The DeVilbiss Co., Glendale Heights, Ill., USA) attached to a Paasche D500 air compressor (Paasche Airbrush Company, Chicago, Ill., USA). Treatment volume was set at 0.50 g of treatment solution per replication. […]
Mortality at day 7 was analyzed by one-way analysis of variance (ANOVA). […]

SMILES: O=[N+]([O-])NC1=NCCN1Cc1ccc(Cl)nc1 [Imidacloprid, imidacloprid]
- Mortality (%) [1]: 100.0%
- mortality at 0.05 % strength [2]: 100%
